Results: the NIST ThermoML archive (doi:10.1007/s10765-006-0119-1)

Conditions: 101.33 kPa, Liquid, Oscillating Cup

O=[N+]([O-])[O-].[Na+] [sodium nitrate]
Conditions	viscosity [mPa·s]
590.3 K	2.854
599.3 K	2.74
600 K	2.658
600.3 K	2.638
613.2 K	2.437
640.9 K	2.155
653.6 K	2.05
673.2 K	1.811
676.8 K	1.768
691.9 K	1.719
709.7 K	1.627
714.6 K	1.537
732.4 K	1.564
752.1 K	1.43
